Values quoted from earlier work as cited in article PMC5571359, “Screening the Medicines for Malaria Venture Pathogen Box across Multiple Pathogens Reclassifies Starting Points for Open-Source Drug Discovery” (Antimicrobial Agents and Chemotherapy, 2017).
pEC50, pIC50: −log10 of the molar value. Like-named read-outs stand apart in the source and are kept apart here.

Legend:
HepG2 = conditions: cited from earlier work; for CC50: read-out: HepG2 PBox CC50 µM, HepG2 cytotoxicity, ref PBox supporting information
P. falciparum ABS = conditions: cited from earlier work; for pEC50: ChEMBL Data; for pIC50: read-out: Pf 3D7 Pbox IC50
[1] = ref Pbox supporting information
[2] = TCMDC, read-out: TCMDC (ref 93) EX50
[3] = Pf 3D7, ref Pathogen Box supporting information
[4] = P. falciparum 3D7, ref PBox supporting information
[5] = P. falciparum, read-out: TCMDC (ref 93) EX50
[6] = NITD, read-out: NITD (ref 94) EC50
[7] = P. falciparum, read-out: NITD (ref 94) EC50

SMILES: CC1(COc2ccc(N3CCC(Oc4ccc(OC(F)(F)F)cc4)CC3)cc2)Cn2cc([N+](=O)[O-])nc2O1 (stereo not shown) [MMV688262]
- CC50 (HepG2): 72.5 µM

SMILES: N#Cc1nc(-c2ccccc2)oc1S(=O)(=O)c1ccc(Cl)cc1 [MMV676412]
- CC50 (HepG2): 2.2 µM

SMILES: O=C(Nc1nnc(S)s1)c1cc(Br)ccc1Cl [MMV676492]
- HepG2 PBox CC20 μMc (HepG2; HepG2 CC20, ref Pathogen Box supporting information): >80000 nM

SMILES: CCOc1ccc(OCC(=O)Nc2cc(C)cc(C)c2)cc1 [MMV676470]
- CC50 (HepG2): > 100 µM

SMILES: COc1ccc(N(CCc2cccc(C)n2)C(C)=O)cc1 [MMV675995]
- HepG2 PBox CC20 μMc (HepG2; [1]): >80000 nM

SMILES: O=C(NCc1cc(Cl)cc(Cl)c1)c1c(C(F)(F)F)nc2ccccn12 [MMV687699]
- CC50 (HepG2): 38.3 µM

SMILES: Nc1ncc(-c2ccc(C(F)(F)F)nc2)cc1-c1ccc(C(F)(F)F)nc1 [MMV668727]
- HepG2 PBox CC20 μMc (HepG2; [1]): >80000 nM

SMILES: O=C(Nc1cccc(-c2ccc(NCCCN3CCCC3)nc2)c1)c1ccccc1 [MMV023953]
- pEC50 (P. falciparum ABS; [2]): 6.06
- pIC50 (P. falciparum ABS; [3]): 6.07

SMILES: CCCn1c(CNc2ccccc2O)nc2ccccc21 [MMV676445]
- CC50 (HepG2): 84.1 µM

SMILES: CCn1cnc2c(Nc3cc(F)cc(F)c3)nc(C#N)nc21 [MMV676881]
- pIC50 (P. falciparum ABS; [4]): 6.05

SMILES: Cc1nn(C)cc1C(C)Nc1nncc(-c2ccc(C(F)(F)F)cc2)n1 (stereo not shown) [MMV019993]
- pEC50 (P. falciparum ABS; [2]): 6.60
- pIC50 (P. falciparum ABS; [3]): 6.92

SMILES: Cc1cc(Nc2ccncc2)n2nc(C)c(-c3ccccc3Cl)c2n1 [MMV016136]
- pEC50 (P. falciparum ABS; [2]): 6.16
- pIC50 (P. falciparum ABS; [3]): 6.20

SMILES: CC(C)(C)c1cc(C(=O)Nc2cccnc2)cc(C(=O)Nc2cccnc2)c1 [MMV020982]
- pEC50 (P. falciparum ABS; [2]): 6.12
- pIC50 (P. falciparum ABS; [3]): 6.05

SMILES: CC(=O)Nc1ccc(NC(=O)c2cc(-c3cc(Cl)ccc3O)[nH]n2)cc1 [MMV676380]
- pEC50 (P. falciparum ABS; [5]): 6.74
- pIC50 (P. falciparum ABS; [4]): 6.46

SMILES: COc1cc2ncnc(NC3CCN(Cc4ccccc4)CC3)c2cc1OC [MMV006741]
- pEC50 (P. falciparum ABS; [6]): 6.40
- pIC50 (P. falciparum ABS; [3]): 6.21

SMILES: Cc1cc(C)n(-c2ccc(NC(=O)C3CCN(Cc4cnc(C)s4)CC3)cc2)n1 [MMV007625]
- pEC50 (P. falciparum ABS; [6]): 6.09
- pIC50 (P. falciparum ABS; [3]): 6.11

SMILES: COc1ccc(C2CC(c3cccs3)=NN2C(=O)c2ccco2)cc1OC (stereo not shown) [MMV019234]
- pEC50 (P. falciparum ABS; [2]): 6.77
- pIC50 (P. falciparum ABS; [3]): 6.52

SMILES: CC(C(=O)N1CCCC1)N1CCN(S(=O)(=O)c2ccc(C(C)(C)C)cc2)CC1 (stereo not shown) [MMV020291]
- pEC50 (P. falciparum ABS; [2]): 6.19
- pIC50 (P. falciparum ABS; [3]): 6.05

SMILES: Cc1ccc2[nH]c3c(NCCN(C)C)ncnc3c2c1 [MMV006372]
- pEC50 (P. falciparum ABS; [6]): 6.77
- pEC50 (P. falciparum ABS; [2]): 6.06
- pIC50 (P. falciparum ABS; [3]): 6.10

SMILES: O=S(=O)(c1ccc(Cl)cc1)N1CCN(C(=S)NCc2ccco2)CC1 [MMV000858]
- pEC50 (P. falciparum ABS; [6]): 6.01
- pIC50 (P. falciparum ABS; [3]): 5.92

SMILES: Cc1cc(NCC(C)C)c2n[nH]c(-c3ccccc3)c2n1 [MMV021375]
- pEC50 (P. falciparum ABS; [2]): 6.13
- pIC50 (P. falciparum ABS; [3]): 5.85

SMILES: COc1ccccc1C(C)NCC(=O)Nc1cc(C(F)(F)F)ccc1Cl (stereo not shown) [MMV020321]
- pEC50 (P. falciparum ABS; [2]): 6.11
- pIC50 (P. falciparum ABS; [3]): 5.86

SMILES: CC(C)(C)CN1C(=O)C(c2ccccc2)(c2ccccc2)N=C1N [MMV026550]
- pEC50 (P. falciparum ABS; [5]): 6.28
- pIC50 (P. falciparum ABS; [4]): 6.10

SMILES: COc1ccc(CCN2CCC(NCc3cccc(N(C)C)c3)CC2)cc1 [MMV011511]
- pEC50 (P. falciparum ABS; [6]): 6.09
- pEC50 (P. falciparum ABS; [2]): 5.88
- pIC50 (P. falciparum ABS; [3]): 5.92

SMILES: Cc1ccc2cc(C3NC(=O)c4ccccc4N3)c(Cl)nc2c1 (stereo not shown) [MMV019807]
- pEC50 (P. falciparum ABS; [2]): 6.02
- pIC50 (P. falciparum ABS; [3]): 5.78

SMILES: CN1CCN(c2nccc3[nH]c(-c4cccc(F)c4)cc23)CC1 [MMV393144]
- pIC50 (P. falciparum ABS; [4]): 5.84

SMILES: O=C(C(Cc1c[nH]c2ccccc12)NS(=O)(=O)c1ccc(Cl)cc1)N1CCCCC1 (stereo not shown) [MMV085210]
- pEC50 (P. falciparum ABS; [7]): 6.14
- pIC50 (P. falciparum ABS; [4]): < 5.70

SMILES: CC(C)C(C(=O)Nc1ccc(S(=O)(=O)N(C)C)cc1)c1ccc(Cl)cc1 (stereo not shown) [MMV020391]
- pEC50 (P. falciparum ABS; [2]): 6.03
- pIC50 (P. falciparum ABS; [3]): 6.03

SMILES: FC(F)(F)c1cnc(Sc2nnc(-c3ccncc3)o2)c(Cl)c1 [MMV011765]
- pEC50 (P. falciparum ABS; [6]): 5.73
- pEC50 (P. falciparum ABS; [2]): 6.57
- pIC50 (P. falciparum ABS; [3]): 6.57

SMILES: O=C(Nc1cnc2ccccc2c1)c1cccc(-n2cnnn2)c1 [MMV084864]
- pEC50 (P. falciparum ABS; [7]): 6.77
- pIC50 (P. falciparum ABS; [4]): 6.27

SMILES: CCCS(=O)(=O)N1CCC(CO)(Cc2ccccc2C(F)(F)F)CC1 [MMV001059]
- pEC50 (P. falciparum ABS; [6]): 5.90
- pEC50 (P. falciparum ABS; St Jude, read-out: St JUDE (ref 95) EC50): 5.47
- pEC50 (P. falciparum ABS; [2]): 6.05
- pIC50 (P. falciparum ABS; [3]): 5.96

SMILES: CC1CCCN(C(=O)C(C)Nc2cc(Cl)ccc2N2CCOCC2)C1 (stereo not shown) [MMV020388]
- pEC50 (P. falciparum ABS; [2]): 6.49
- pIC50 (P. falciparum ABS; [3]): 6.28

SMILES: CCCNC(=O)N1CCC2(CC1)CC(=O)c1cc(C)ccc1O2 [MMV085230]
- pEC50 (P. falciparum ABS; [7]): 6.06
- pIC50 (P. falciparum ABS; [4]): 5.69

SMILES: O=C(Nc1ccnc(-c2cccnc2)n1)c1cc(C(F)(F)F)cc(C(F)(F)F)c1 [MMV019838]
- pEC50 (P. falciparum ABS; [2]): 6.08
- pIC50 (P. falciparum ABS; [3]): 5.98

SMILES: Cc1cc(NC(=O)c2ccc(S(=O)(=O)N(Cc3ccccc3)C(C)C)cc2)no1 [MMV007133]
- pEC50 (P. falciparum ABS; [6]): 5.57
- pEC50 (P. falciparum ABS; [2]): 6.07
- pIC50 (P. falciparum ABS; [3]): 6.01

SMILES: COc1ccc(-c2cncc3ccc(C(=O)NCCCn4ccnc4)nc23)cc1 [MMV020670]
- pEC50 (P. falciparum ABS; [2]): 6.12
- pIC50 (P. falciparum ABS; [3]): 5.97

SMILES: c1ccc2c(c1)CN(CC1CC1)CC1(CCN(Cc3c[nH]c4cnccc34)CC1)O2 [MMV023183]
- pEC50 (P. falciparum ABS; [2]): 6.05
- pIC50 (P. falciparum ABS; [3]): 6.21

SMILES: COc1ccccc1CNC(=O)c1cc(C2CC2)nc2c1cnn2C(C)C [MMV020517]
- pEC50 (P. falciparum ABS; [2]): 5.99
- pIC50 (P. falciparum ABS; [3]): 6.03

SMILES: CNC(=O)c1cc(S(=O)(=O)N2CCN(c3ccccn3)CC2)cs1 [MMV020136]
- pEC50 (P. falciparum ABS; [2]): 6.17
- pIC50 (P. falciparum ABS; [3]): 5.95

SMILES: CC(C)NCC(=O)Nc1cccc(C(=O)Nc2cccc(C(F)(F)F)c2)c1 [MMV020165]
- pEC50 (P. falciparum ABS; [2]): 6.57
- pIC50 (P. falciparum ABS; [3]): 6.46

SMILES: CS(=O)(=O)c1cccc(-c2cnc3[nH]cc(-c4ccc(CCC(=O)O)cc4)c3c2)c1 [MMV026020]
- pEC50 (P. falciparum ABS; [5]): 6.20
- pIC50 (P. falciparum ABS; [4]): 6.30

SMILES: CCc1cc(=O)n(C)c(SC(C)C(=O)Nc2ccc(F)cc2)n1 (stereo not shown) [MMV688980]
- pEC50 (P. falciparum ABS; [7]): 6.12
- pIC50 (P. falciparum ABS; [4]): 5.71

SMILES: Cc1cc2ccccc2n1CC(=O)N1CC(C(=O)N2CCCCC2)Oc2ccccc21 (stereo not shown) [MMV020520]
- pEC50 (P. falciparum ABS; [2]): 6.05
- pIC50 (P. falciparum ABS; [3]): 5.97

SMILES: CC(C)(C)c1cc(C(=O)N2CCN(c3nccnc3C#N)CC2)n(Cc2ccccc2)n1 [MMV023949]
- pEC50 (P. falciparum ABS; [2]): 6.12
- pIC50 (P. falciparum ABS; [3]): 6.22

SMILES: O=C(NC1CC1)c1ccc(CSCc2ccccc2Cl)o1 [MMV007803]
- pEC50 (P. falciparum ABS; [6]): 6.30
- pIC50 (P. falciparum ABS; [3]): 5.85

SMILES: O=C(c1ccc(NCCO)cc1)C1C[C@H]1c1ccc(Cl)cc1 (stereo partly shown) [MMV676877]
- pIC50 (P. falciparum ABS; [4]): 6.18

SMILES: COc1cccc2c(C)nc(N=C(N)N)nc12 [MMV000907]
- pEC50 (P. falciparum ABS; [6]): 6.54
- pIC50 (P. falciparum ABS; [3]): 5.97

SMILES: CCOc1ccccc1C(=O)Nc1cccc(-c2nc3ncccn3c2C)c1 [MMV019790]
- pEC50 (P. falciparum ABS; [2]): 6.07
- pIC50 (P. falciparum ABS; [3]): 5.90

SMILES: Cc1cc(Cl)c(S(=O)(=O)N2CCCC2)cc1OCC(=O)NC1CCCCC1 [MMV006833]
- pEC50 (P. falciparum ABS; [6]): 7.00
- pIC50 (P. falciparum ABS; [3]): 6.52

SMILES: OCc1ccc(-c2cncc(Nc3cccc(Cl)c3)c2)cc1 [MMV026468]
- pEC50 (P. falciparum ABS; [5]): 7.13
- pIC50 (P. falciparum ABS; [4]): 7.47

SMILES: Cc1noc(C)c1C(=O)N1CCCC(c2[nH]c3c(C)cccc3c2-c2ccncc2)C1 (stereo not shown) [MMV020623]
- pEC50 (P. falciparum ABS; [2]): 6.08
- pIC50 (P. falciparum ABS; [3]): 6.03

SMILES: CCN(CC)CCCN1CCN(C(=O)c2cccc(-c3noc(C(F)(F)F)n3)c2)CC1 [MMV022236]
- pEC50 (P. falciparum ABS; [2]): 6.82
- pIC50 (P. falciparum ABS; [3]): 6.72

SMILES: CN1CCN(S(=O)(=O)c2ccc(-c3ccc4c(Nc5ccc6nn[nH]c6c5)ccnc4c3)cc2)CC1 [MMV687246]
- pIC50 (P. falciparum ABS; [4]): 6.38

SMILES: CCC(NC(=O)c1ccccc1NC(=O)c1ccc(C)cc1)C(=O)OC (stereo not shown) [MMV019551]
- pEC50 (P. falciparum ABS; [2]): 6.12
- pIC50 (P. falciparum ABS; [3]): 6.80

SMILES: COc1cc(OC)cc(C(=O)NCC2Cc3cc(Cl)cc(-c4ccncc4)c3O2)c1 (stereo not shown) [MMV007471]
- pEC50 (P. falciparum ABS; [6]): 6.43
- pIC50 (P. falciparum ABS; [3]): 6.24

SMILES: COc1ccc(Cl)cc1NC(=O)CN(C)C(=O)c1cnn(-c2ccccc2)n1 [MMV020710]
- pEC50 (P. falciparum ABS; [2]): 6.64
- pIC50 (P. falciparum ABS; [3]): 6.62
